This is an account of results in patent publication US20260176284A1, “Compounds with Anti-KRAS Mutated Tumor Activity” (Trasveda Ltd., priority 2022, published 2026).

Test [1] concerns KRAS G12D mutated AGS human gastric adenocarcinoma cells. Description: Proliferation inhibition of KRAS G12D mutant AGS cells (CellTiter-Glo, 3 days; IC50 and single-point inhibition rate at 1 μM). The settings on record: 72 h, 3 days incubation, max concentration 10 μM. Format: cell-based. As to the method: This experiment assessed and validated the proliferation inhibitory activity of some compounds of the present invention against KRAS G12D mutant AGS cells.
Incubate at 37° C., 5% CO2, 95% humidity.
The following materials, instruments, and reagents were used in this experiment: Fetal Bovine Serum FBS (GIBCO, Cat #10099-141); CellTiter-Glo® Luminescent Cell Viability Assay (Promega, Cat #G7572); 96-well clear flat-bottom black-wall plate (Corning®, Cat #3603); SpectraMax multimode microplate reader (MD, 2104-0010A); CO2 Incubator (Thermo Scientific, Model 3100 Series); Biosafety cabinet (Thermo Scientific, Model 1300 Series A2); Inverted microscope (Olympus, CKX41SF); AGS cell line was purchased from Nanjing Kebai Biotechnology Co., Ltd., under the lot number CBP60476.
Cell culture and inoculation: The cells in the logarithmic growth phase were harvested, and cell counting was performed using a platelet counter. The cell viability was detected by Trypan Blue exclusion method to ensure that the cell viability was above 90%. The cell concentration was adjusted. Then, 90 μL of the cell suspension was added to each well of a 96-well plate respectively, and the cells in the 96-well plate were cultured at 37° C. and 5% CO2.
Drug dilution and addition: a) For the preparation of drugs for single-point inhibition rate determination: A 10-fold concentrated drug solution was prepared. 10 μL of the drug solution was added to each well of the 96-well plate inoculated with cells to make the working concentration 1 μM, and three replicate wells were set for each drug concentration; b) For the preparation of drugs for IC50 determination: A 10-fold concentrated drug solution was prepared. 10 μL of the drug solution was added to each well of the 96-well plate inoculated with cells to make the maximum working concentration 10 μM, with a 3.16× dilution and a total of 9 concentrations. Three replicate wells were set for each drug concentration. The cells in the 96-well plate with the added drugs were incubated at 37° C. and 5% CO2 for another 3 days, and then the CTG assay was performed.
The CTG reagent was thawed, and the cell plate was equilibrated to room temperature for 30 minutes. An equal volume of CTG solution was added to each well, and the plate was shaken on an orbital shaker for 5 minutes to lyse the cells. The cell plate was placed at room temperature for 20 minutes to stabilize the luminescence signal, and then the luminescence value was read.
The data were analyzed using GraphPad Prism 7.0 software. The data were fitted by nonlinear S-curve regression to obtain the dose-response curve, and the IC50 value was calculated accordingly.

For test [2] the test system is unchanged. Nature of the test: Proliferation inhibition of KRAS G12D mutant AGS cells, another experiment with similar protocol (includes MRTX1133). Type of test: cell-based. Conditions: Homo sapiens. The method, then:
In another experiment, using a protocol similar to the one described above, the inhibitory activity of some representative compounds of the present invention against KRAS G12D mutated AGS human gastric adenocarcinoma cells was determined.
The synthesis of compound MRTX1133 was performed according to the method described in J. Med. Chem. 2022, 65, 4, 3123-3133.

As for `C#Cc1c(F)ccc2cc(O)cc(-c3c(F)cc4c(N5CC6CCC(C5)N6)nc(OCC5COCCN(C)C5)nc4c3F)c12` (stereo not shown) [Example 7], it took 781 nM to reach half-maximal inhibition in test [1] (IC50). In other words, the sub-micromolar range.

In test [1], `C#Cc1c(F)ccc2cc(O)cc(-c3c(F)cc4c(N5CC6CCC(C5)N6)nc(OCC5(C)CCCN(C)C5)nc4c3F)c12` (atropisomer, axis not shown; (Ra)) [Example 2, (Ra)-4-(4-((1R,5S)-3,8-diazabicyclo[3.2.1]octan-3-yl)-2-((1,3-dimethylpiperidin-3-yl)methoxy)-6,8-difluoroquinazolin-7-yl)-5-ethynyl-6-fluoronaphthalen-2-ol·dicarboxylate] registered a concentration for half-maximal inhibition (IC50) of 50 nM.

The compound `C#Cc1c(F)ccc2cc(O)cc(-c3c(F)cc4c(N5CC6CCC(C5)N6)nc(OCC56CC5CCN(C)C6)nc4c3F)c12` (atropisomer, axis not shown; (Ra)) [Example 9, (Ra)-4-(4-((1R,5S)-3,8-diazabicyclo[3.2.1]octan-3-yl)-6,8-difluoro-2-((3-methyl-3-azabicyclo[4.1.0]heptan-1-yl)methoxy)quinazolin-7-yl)-5-ethynyl-6-fluoronaphthalen-2-ol·diformate] registered a concentration for half-maximal inhibition (IC50) in test [1] of 347 nM. This IC50 lies about 6.9-fold higher than the previous one.

In test [1], `C#Cc1c(F)ccc2cc(O)cc(-c3c(F)cc4c(N5CC6CCC(C5)N6)nc(OCC5(F)CCCN(C)C5)nc4c3F)c12` (atropisomer, axis not shown; (Ra)) [Example 1, (Ra)-4-(4-((1R,5S)-3,8-diazabicyclo[3.2.1]octan-3-yl)-6,8-difluoro-2-(3-fluoro-1-methylpiperidin-3-yl)methoxy)quinazolin-7-yl)-5-ethynyl-6-fluoronaphthalen-2-ol·diformate] returned an IC50 of 94 nM.

In the case of `C#Cc1c(F)ccc2cc(O)cc(-c3c(F)cc4c(N5CC6CCC(C5)N6)nc(OCC5(C)CCCN(CCF)C5)nc4c3F)c12` (atropisomer, axis not shown; (Ra)) [Example 4, (Ra)-4-(4-((1R,5S)-3,8-diazabicyclo[3.2.1]octan-3-yl)-6,8-difluoro-2-(1-(2-fluoroethyl)-3-methylpiperidin-3-yl)methoxy)quinazolin-7-yl)-5-ethynyl-6-fluoronaphthalen-2-ol·diformate], the IC50 in test [1] worked out at 88 nM.

Compound `C#Cc1c(F)ccc2cc(O)cc(-c3c(F)cc4c(N5CC6CCC(C5)N6)nc(OCC5(C)CN(C)CCC5(F)F)nc4c3F)c12` (atropisomer, axis not shown; (Ra)) [Example 6, (Ra)-4-(4-((1R,5S)-3,8-diazabicyclo[3.2.1]octan-3-yl)-2-((4,4-difluoro-1,3-dimethylpiperidin-3-yl)methoxy)-6,8-difluoroquinazolin-7-yl)-5-ethynyl-6-fluoronaphthalen-2-ol] registered a 50% inhibitory concentration (IC50) in test [1] of 55 nM.

`C#Cc1c(F)ccc2cc(O)cc(-c3c(F)cc4c(N5CC6CCC(C5)N6)nc(OCC5(C)CCCCN(CCOC)C5)nc4c3F)c12` [Example 8, 4-(4-((1R,5S)-3,8-diazabicyclo[3.2.1]octane-3-yl)-6,8-difluoro-2-((1-(2-methoxyethyl)-3-methylazepan-3-yl)methoxy)quinazolin-7-yl)-5-ethynyl-6-fluoronaphthalen-2-ol·triformate] had an IC50 in test [1] of 251 nM. Compared with the last compound, the IC50 is about 4.6-fold higher.

In turn, `C#Cc1c(F)ccc2cc(O)cc(-c3c(F)cc4c(N5CC6CCC(C5)N6)nc(OCC5(C)CCCN(CCOC)C5)nc4c3F)c12` (atropisomer, axis not shown; (Ra)) [Example 3, (Ra)-4-(4-((1R,5S)-3,8-diazabicyclo[3.2.1]octan-3-yl)-6,8-difluoro-2-(1-(2-methoxyethyl)-3-methylpiperidin-3-yl)methoxy)quinazolin-7-yl)-5-ethynyl-6-fluoronaphthalen-2-ol·formate] showed a concentration for half-maximal inhibition (IC50) in test [1] of 158 nM.

In test [2], `C#Cc1c(F)ccc2cc(O)cc(-c3nc(OC)c4c(N5C[C@H]6CC[C@@H](C5)N6)nc(OC[C@]5(C)CN(C)CCC5=C)nc4c3F)c12` [Example 258, 4-(4-((1R,5S)-3,8-diazabicyclo[3.2.1]octan-3-yl)-2-(((S)-1,3-dimethyl-4-methylenepiperidin-3-yl)methoxy)-8-fluoro-5-methoxypyrido[4,3-d]pyrimidin-7-yl)-5-ethynyl-6-fluoronaphthalen-2-ol] returned a 50% inhibitory concentration (IC50) of 8 nM. In other words, the single-digit nanomolar range.

The compound `CN1CC[C@H](C(F)F)[C@](C)(COc2nc(N3C[C@H]4CC[C@@H](C3)N4)c3cc(C(F)(F)F)c(-c4c(F)ccc5sc(N)c(C#N)c45)c(F)c3n2)C1` (single isomer, unassigned) [Example 363-1] showed a half-inhibitory concentration (IC50) in test [2] of 4 nM.

For `C#Cc1c(F)ccc2cc(O)cc(-c3c(F)cc4c(N5CC6CCC(C5)N6)nc(OCC5(C)CN(C)CCC5OC)nc4c3F)c12` (atropisomer, axis not shown; (Ra)) [Example 5, (Ra)-4-(4-(((1R,5S)-3,8-diazabicyclo[3.2.1]octan-3-yl)-6,8-difluoro-2-(4-methoxy-1,3-dimethylpiperidin-3-yl)methoxy)quinazolin-7-yl)-5-ethynyl-6-fluoronaphthalen-2-ol·diformate], the half-inhibitory concentration (IC50) in test [1] was determined as 175 nM.

In test [2], `CN1CC/C(=C\F)[C@](C)(COc2nc(N3CC4CCC(C3)N4)c3cc(Cl)c(-c4cccc5sc(N)c(C#N)c45)c(F)c3n2)C1` (single isomer, unassigned) [Example 313-2] gave an IC50 of 17 nM. This lies in the double-digit nanomolar range.

`CN1CC/C(=C\F)[C@](C)(COc2nc(N3C[C@H]4CC[C@@H](C3)N4)c3cc(C(F)(F)F)c(-c4cccc5sc(N)c(C#N)c45)c(F)c3n2)C1` [Example 318, 4-(4-((1R,5S)-3,8-diazabicyclo[3.2.1]octan-3-yl)-8-fluoro-2-(((S,E)-4-(fluoromethylene)-1,3-dimethylpiperidin-3-yl)methoxy)-6-(trifluoromethyl)quinazolin-7-yl)-2-aminobenzo[b]thiophene-3-carbonitrile]: the 50% inhibitory concentration (IC50) in test [2] was 28 nM. This IC50 is about 1.6-fold higher than that of the compound before.

For `Cc1cc(N)c(C#N)c(-c2c(F)cc3c(N4C[C@H]5CC[C@@H](C4)N5)nc(OC[C@]4(C)CN(C)CC[C@@H]4CF)nc3c2F)c1C(F)(F)F` (single isomer, unassigned) [Example 85-2], the midpoint of inhibition in test [2], the IC50, lay at 38 nM. The IC50 values of the last two compounds are within 1.5-fold of each other.

`C#Cc1c(F)ccc2cc(O)cc(-c3c(F)cc4c(N5CC6CCC(C5)N6)nc(OC[C@]5(C)CN(CC)CC[C@@H]5C)nc4c3F)c12` (atropisomer, axis not shown; (Ra)) [Example 52-1, (Ra)-4-(4-((1R,5S)-3,8-diazabicyclo[3.2.1]octan-3-yl)-2-(((35,4S)-1-ethyl-3,4-dimethyl-piperidin-3-yl)methoxy)-6,8-difluoroquinazolin-7-yl)-5-ethynyl-6-fluoro-naphthalen-2-ol] registered a concentration for half-maximal inhibition (IC50) in test [2] of 10 nM.

In the case of `C#Cc1c(F)ccc2cc(O)cc(-c3c(F)cc4c(N5CC6CCC(C5)N6)nc(OC[C@]5(C)CN(C)CCC5=C)nc4c3F)c12` (atropisomer, axis not shown; (Ra)) [Example 40, (Ra)-4-(4-((1R,5S)-3,8-diazabicyclo[3.2.1]octan-3-yl)-2-(((S)-1,3-dimethyl-4-methylenepiperidin-3-yl)methoxy)-6,8-difluoroquinazolin-7-yl)-5-ethynyl-6-fluoronaphthalen-2-ol], the IC50 in test [2] stood at 9 nM.

Turning to `CCc1c(F)ccc2cc(O)cc(-c3c(F)cc4c(N5CC6CCC(C5)N6)nc(OC[C@]5(C)CN(C)CC[C@@H]5CF)nc4c3F)c12` [Example 99-1], the concentration for half-maximal inhibition (IC50) in test [2] was 18 nM.

As for `C#Cc1c(F)ccc2cc(O)cc(-c3ncc4c(N5CC6CCC(C5)N6)nc(OC[C@]5(CC)CN(C)CC[C@@H]5C(F)F)nc4c3F)c12` (racemic) [Example 396, (±)4-(4-((1R,5S)-3,8-diazabicyclo[3.2.1]octan-3-yl)-2-(((3S,4S)-4-(difluoromethyl)-3-ethyl-1-methylpiperidin-3-yl)methoxy)-8-fluoropyrido[4,3-A]pyrimidin-7-yl)-5-ethynyl-6-fluoronaphthalen-2-ol], the half-maximal inhibitory concentration (IC50) in test [2] is 11 nM.

With `C#Cc1c(F)ccc2cc(O)cc(-c3c(F)cc4c(N5C[C@H]6CC[C@@H](C5)N6)nc(OC[C@]5(C)CN(CC)CC/C5=C\F)nc4c3F)c12` [Example 79, 4-(4-((1R,5S)-3,8-diazabicyclo[3.2.1]octan-3-yl)-2-(((S,E)-1-ethyl-4-(fluoromethylene)-3-methylpiperidin-3-yl)methoxy)-6,8-difluoroquinazoline-7-yl)-5-ethynyl-6-fluoronaphthalene-2-ol], half-maximal inhibition in test [2] (IC50) required 4 nM.
